Assays:
VMAT-2 = target: T1, VMAT-2 (Rattus norvegicus, UniProt Q01827); test: [3H] Dihydrotetrabenazine binding assay for VMAT-2 (Assay B); settings: [3H] dihydrotetrabenazine 5 nM, rat brain homogenate, competition binding
T1 construct: from tissue; host or cells: rat brain, 6 mm coronal slice incorporating the striatum, homogenate
Description: Screen for VMAT-2 binding activity using a [^3H] Dihydrotetrabenazine binding Assay
Dihydrotetrabenazine is a very potent and selective inhibitor of VMAT-2, and binds with high affinity (nM range) to this vesicular transporter. [^3H] Dihydrotetrabenazine has been successfully used for many years as a radioligand to label VMAT-2 in human, bovine and rodent brain (e.g. Scherman et al. J. Neurochem. 50, 1131-1136 (1988); Near et al. Mol. Pharmacol. 30, 252-257 (1986); Kilbourn et al. Eur. J. Pharmacol. 278, 249-252 (1995); and Zucker et al. Life Sci. 69, 2311-2317 (2001)).
Charles River CD-1 rats were euthanized by decapitation and the brains dissected free and placed in ice cold PBS. The chilled brain was placed in a coronal brain matrix (Activational Systems, Inc) with 1 mm intervals. Single edge razor blades were inserted such that a 6 mm slice incorporating the striatum was removed. The tissue was weighed and placed in an ice-cold hand homogenizer, 10 volumes of KBS-EDTA (137 mM KCl, 3 mM NaCl, 8 mM K2HPO4, 1.5 mM NaH2PO4, 1 mM EDTA, pH 8.0) were added and the tissue homogenized with 10 strokes (maintaining on ice). Aliquots were placed into 500 μl microfuge tubes and then stored at −80° C. for later assays. A fresh aliquot was taken for protein assay. Protein concentrations were determined using BCA Protein Assay (Pierce Chemical) with bovine serum albumin as the standard. For VMAT2 assay, aliquots were thawed and placed on ice, and diluted with KBS-EDTA for a final protein concentration of 1 mg/ml.
Whatman GF/C filters (Acros) were presoaked with PBS/0.1% polyethylenimine at room temperature and then placed on a 48 place cell harvester (Brandel). Harvester was loaded with labeled tubes (12×75 mm) in the test tube rack. Into the tubes were placed 10 μl of the compound dilutions to their respective triplicate tubes and 1 μl of 10 mM TBZ added to the tubes used for non-specific binding measurements. Into each tube was then placed 0.5 ml of a 10 nM [^3H] dihydrotetrabenazine (DTBZ) dilution (American Radiolabeled Chemicals) in KBS-EDTA, the tubes were vortexed, and then 0.5 ml of the 1 mg/ml rat forebrain tissue homogenate solution was added into all tubes. Each tube was vortexed briefly and then incubated at room temperature for 30 minute.
Final concentrations of samples were 500 μg protein, 5 nM [3H]DTBZ; 10 μM TBZ (for nonspecific tubes) in 1 ml total volume. […] Filter circles were placed in scintillation vials and 10 ml of Universol (ICN) was added, samples incubated overnight and then counted on a Packard Tri-Carb 1600 scintillation counter.
Competition binding isotherms were analyzed with the use of computer-assisted nonlinear curve-fitting (LIGAND program) using both one and two site models.

Dopamine D3 Receptor = target: T2, Dopamine D3 Receptor (Homo sapiens, UniProt P35462); test: Radioligand binding, [3H] Spiperone; settings: compound at 10 μM
T2 construct: expressed in transfected cells; host or cells: CHO cells
T2 sequence (P35462 whole entry): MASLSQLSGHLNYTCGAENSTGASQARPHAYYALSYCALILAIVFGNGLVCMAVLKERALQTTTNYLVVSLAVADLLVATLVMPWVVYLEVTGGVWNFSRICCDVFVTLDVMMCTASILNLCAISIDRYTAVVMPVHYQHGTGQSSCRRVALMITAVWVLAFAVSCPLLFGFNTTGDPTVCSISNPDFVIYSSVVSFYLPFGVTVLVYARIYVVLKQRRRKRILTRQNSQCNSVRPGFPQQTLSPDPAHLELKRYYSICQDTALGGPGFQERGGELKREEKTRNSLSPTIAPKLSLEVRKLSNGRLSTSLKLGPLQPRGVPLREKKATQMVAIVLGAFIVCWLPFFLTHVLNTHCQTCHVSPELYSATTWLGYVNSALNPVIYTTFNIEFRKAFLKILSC
Protocol: (§1) Compounds of the invention were subjected to specific binding assays to test their ability to bind to the receptors and transporter proteins described below.
(g) Dopamine D3 Receptor:
• Reference: Sokoloff et al., Nature, 347:146-151, (1990) • Source: Human recombinant CHO cells • Ligand: 0.7 nM [3H]

Dopamine D4.2 Receptor = target: T3, Dopamine D4.2 Receptor (Homo sapiens, UniProt P21917, DEL265-296); test: Radioligand binding, [3H] Spiperone; settings: compound at 10 μM
T3 construct: expressed in transfected cells; host or cells: CHO-K1 cells
T3 sequence (P21917 with tags, fused parts or gaps DEL265-296): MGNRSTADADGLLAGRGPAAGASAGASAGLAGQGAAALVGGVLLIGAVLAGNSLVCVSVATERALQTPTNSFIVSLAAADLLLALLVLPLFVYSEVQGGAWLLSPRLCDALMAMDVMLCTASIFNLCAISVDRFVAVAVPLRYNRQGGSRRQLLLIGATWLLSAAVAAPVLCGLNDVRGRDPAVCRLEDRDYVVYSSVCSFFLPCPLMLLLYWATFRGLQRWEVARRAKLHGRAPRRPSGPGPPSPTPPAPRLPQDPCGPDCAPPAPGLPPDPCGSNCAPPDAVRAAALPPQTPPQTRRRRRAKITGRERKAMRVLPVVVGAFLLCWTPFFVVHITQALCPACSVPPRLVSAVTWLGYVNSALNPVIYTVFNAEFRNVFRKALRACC
Protocol: as §1
(h) Dopamine D4.2 Receptor:
• Reference: Van Tol et al., Nature, 350:610-614 (1991) • Source: Human recombinant CHO-K1 cells • Ligand: 0.5 nM [^3H]

Dopamine D4.4 Receptor = target: T4, Dopamine D4.4 Receptor (Homo sapiens, UniProt P21917); test: Radioligand binding, [3H] Spiperone; settings: compound at 10 μM
T4 construct: expressed in transfected cells; host or cells: CHO-K1 cells
T4 sequence (P21917 1-419): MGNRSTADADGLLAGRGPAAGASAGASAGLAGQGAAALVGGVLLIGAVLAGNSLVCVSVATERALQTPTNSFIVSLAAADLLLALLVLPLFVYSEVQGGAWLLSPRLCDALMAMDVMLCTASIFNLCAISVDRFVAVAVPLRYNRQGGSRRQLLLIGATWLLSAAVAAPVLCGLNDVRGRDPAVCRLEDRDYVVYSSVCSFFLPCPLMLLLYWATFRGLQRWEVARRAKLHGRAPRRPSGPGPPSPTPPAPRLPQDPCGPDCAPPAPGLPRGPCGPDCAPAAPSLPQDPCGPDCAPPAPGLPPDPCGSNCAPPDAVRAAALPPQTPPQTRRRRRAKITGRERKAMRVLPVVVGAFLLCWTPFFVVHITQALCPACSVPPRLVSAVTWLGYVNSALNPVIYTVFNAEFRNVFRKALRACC
Protocol: as §1
(i) Dopamine D4.4 Receptor:
• Reference: Van Tol et al., Nature, 350:610-614 (1991) • Source: Human recombinant CHO-K1 cells • Ligand: 1.2 nM [^3H]

Dopamine D4.7 Receptor = test: Radioligand binding, [3H] Spiperone; design: species or system Human; settings: compound at 10 μM
Protocol: as §1
(j) Dopamine D4.7 Receptor:
• Reference: Van Tol et al., Nature, 350:610-614 (1991) • Source: Human recombinant CHO-K1 cells • Ligand: 1.5 nM [^3H]

T1 sequence (Q01827 whole entry): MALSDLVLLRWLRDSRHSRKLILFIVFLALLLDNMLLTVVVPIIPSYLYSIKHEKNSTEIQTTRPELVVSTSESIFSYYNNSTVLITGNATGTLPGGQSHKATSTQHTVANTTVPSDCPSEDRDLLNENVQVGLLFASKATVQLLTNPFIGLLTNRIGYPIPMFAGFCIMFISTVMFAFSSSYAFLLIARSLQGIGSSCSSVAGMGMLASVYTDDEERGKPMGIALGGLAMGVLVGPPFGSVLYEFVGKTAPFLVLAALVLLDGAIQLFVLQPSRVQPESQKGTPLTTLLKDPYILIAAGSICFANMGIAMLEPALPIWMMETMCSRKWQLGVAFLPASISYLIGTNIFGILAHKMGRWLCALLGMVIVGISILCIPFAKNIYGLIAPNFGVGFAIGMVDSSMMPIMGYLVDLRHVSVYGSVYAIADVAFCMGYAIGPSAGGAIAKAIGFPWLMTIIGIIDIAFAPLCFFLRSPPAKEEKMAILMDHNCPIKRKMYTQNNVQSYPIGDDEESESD

Bmax (VMAT-2) [fmol/µg] | Ki (VMAT-2) [nM] | % inhibition, (g) D3 Receptor (Dopamine D3 Receptor) [%] | % inhibition, (h) D4.2 Receptor (Dopamine D4.2 Receptor) [%] | % inhibition, (i) D4.4 Receptor (Dopamine D4.4 Receptor) [%] | % inhibition, (j) D4.7 Receptor (Dopamine D4.7 Receptor) [%] | Compound
0.174 ± 0.035 | 451 | 65 | 55 | 33 | 25 | COc1cc2c(cc1O)[C@@H]1C[C@@H](O)[C@H](CC(C)C)CN1CC2 (single isomer, unassigned) [(+)-10-desmethyl-γ-dihydrotetrabenazine]
0.101 ± 0.009 | 1.82 | 101 | 90 | 81 | 87 | COc1cc2c(cc1O)[C@@H]1C[C@@H](O)[C@H](CC(C)C)CN1CC2 (single isomer, unassigned) [(−)-10-desmethyl-γ-dihydrotetrabenazine]

Source: patent US20100087475A1, “PHARMACEUTICAL COMPOUNDS” (Biovali Laboratories International (Barbados) S.R.L., priority 2008, published 2010)
